melting point | Structure (SMILES)
129 °C | Cc1ccc(S(=O)(=O)Cc2ccc(C(O)(C(F)(F)F)C(F)(F)F)cc2)cc1 [Example 2, 1,1,1,3,3,3-Hexafluoro-2-(4-{[(4-methylphenyl)sulfonyl]methyl}phenyl)propan-2-ol]
148 °C | O=S(=O)(Cc1ccc(C(O)(C(F)(F)F)C(F)(F)F)cc1)c1ccc2ccccc2c1 [Example 3, 1,1,1,3,3,3-Hexafluoro-2-{4-[(2-naphthylsulfonyl)methyl]phenyl}propan-2-ol]
126 °C | O=S(=O)(Cc1ccc(C(O)(C(F)(F)F)C(F)(F)F)cc1)c1ccc(Br)cc1 [Example 4, 2-(4-{[(4-Bromophenyl)sulfonyl]methyl}phenyl)-1,1,1,3,3,3-hexafluoropropan-2-ol]
124 °C | O=S(=O)(Cc1ccc(C(O)(C(F)(F)F)C(F)(F)F)cc1)c1ccccc1Br [Example 5, 2-(4-{[(2-Bromophenyl)sulfonyl]methyl}phenyl)-1,1,1,3,3,3-hexafluoropropan-2-ol]
121 °C | O=S(=O)(Cc1ccc(C(O)(C(F)(F)F)C(F)(F)F)cc1)c1cccc(Br)c1 [Example 6, 2-(4-{[(3-Bromophenyl)sulfonyl]methyl}phenyl)-1,1,1,3,3,3-hexafluoropropan-2-ol]
112 °C | O=S(=O)(Cc1ccc(C(O)(C(F)(F)F)C(F)(F)F)cc1)c1ccc(Cl)cc1 [Example 7, 2-(4-{[(4-Chlorophenyl)sulfonyl]methyl}phenyl)-1,1,1,3,3,3-hexafluoropropan-2-ol]
136 °C | CC(c1ccc(C(O)(C(F)(F)F)C(F)(F)F)cc1)S(=O)(=O)c1ccccc1 (stereo not drawn) [Example 8, 1,1,1,3,3,3-Hexafluoro-2-{4-[1-(phenylsulfonyl)ethyl]phenyl}propan-2-ol]
157 °C | O=S(=O)(c1ccccc1)C(Cc1ccccc1)c1ccc(C(O)(C(F)(F)F)C(F)(F)F)cc1 (stereo not drawn) [Example 9, 1,1,1,3,3,3-Hexafluoro-2-{4-[2-phenyl-1-(phenylsulfonyl)ethyl]phenyl}propan-2-ol]
172 °C | CC(C)(C)C(=O)C(c1ccc(C(O)(C(F)(F)F)C(F)(F)F)cc1)S(=O)(=O)c1ccccc1 (stereo not drawn) [Example 11, 3,3-Dimethyl-1-(phenylsulfonyl)-1-{4-[2,2,2-trifluoro-1-hydroxy-1-(trifluoromethyl) -ethyl]phenyl}butan-2-one]
148 °C | C=CCC(c1ccc(C(O)(C(F)(F)F)C(F)(F)F)cc1)S(=O)(=O)c1ccccc1 (stereo not drawn) [Example 14, 1,1,1,3,3,3-Hexafluoro-2-{4-[1-(phenylsulfonyl)but-3-enyl]phenyl}propan-2-ol]
148 °C | CCC(c1ccc(C(O)(C(F)(F)F)C(F)(F)F)cc1)S(=O)(=O)c1ccccc1 (stereo not drawn) [Example 15, 1,1,1,3,3,3-Hexafluoro-2-{4-[1-(phenylsulfonyl)propyl]phenyl}propan-2-ol]
151 °C | O=S(=O)(c1ccccc1)C(CC(F)(F)F)c1ccc(C(O)(C(F)(F)F)C(F)(F)F)cc1 (stereo not drawn) [Example 16, 1,1,1,3,3,3-Hexafluoro-2-{4-[3,3,3-trifluoro-1-(phenylsulfonyl)propyl]phenyl}propan-2-ol]
159 °C | Cc1ccc(CC(c2ccc(C(O)(C(F)(F)F)C(F)(F)F)cc2)S(=O)(=O)c2ccccc2)cc1 (stereo not drawn) [Example 17, 1,1,1,3,3,3-Hexafluoro-2-{4-[2-(4-methylphenyl)-1-(phenylsulfonyl)ethyl]phenyl}propan-2-ol]
192 °C | O=S(=O)(c1ccccc1)C(Cc1ccc(-c2ccccc2)cc1)c1ccc(C(O)(C(F)(F)F)C(F)(F)F)cc1 (stereo not drawn) [Example 18, 2-{4-[2-(1,1′-Biphenyl-4-yl)-1-(phenylsulfonyl)ethyl]phenyl}-1,1,1,3,3,3-hexafluoropropan-2-ol]
185 °C | CC(C)(c1ccc(C(O)(C(F)(F)F)C(F)(F)F)cc1)S(=O)(=O)c1ccccc1 [Example 19, 1,1,1,3,3,3-Hexafluoro-2-{4-[1-methyl-1-(phenylsulfonyl)ethyl]phenyl}propan-2-ol]

Source: patent US6822120B2, “Sulfone liver X-receptor modulators” (Pharmacia Corporation, priority 2002, dated 2004)
